The record followed here is US20100280098A1, “RECEPTOR TARGETED OLIGONUCLEOTIDES” (priority 2007, published 2010).

Entries after “also recorded” stand apart in the source; their conditions may differ.

The subject of data set [1] is αvβ3. The data set is described as follows: Cell surface αvβ3 level by immunostaining and flow cytometry. In kind it is cell-based, human. The note with it: 200 nM, 24 h exposure. The protocol:
Then, αvβ3 levels were determined by immunostaining with anti-αvβ3 antibody. […] The y axis of each panel indicates the number of cells, while the x axis indicates the log of fluorescence intensity.
(§1) Cell Uptake, Confocal Fluorescence Microscopy, and Flow Cytometry: Total cellular uptake of Tamra-labeled oligonucleotides was monitored using a Nanodrop microfluorimeter (Nanodrop Technologies, Wilmington, Del., United States of America). After treatment with oligonucleotides the cells were lysed in a mild non-ionic detergent buffer and the Tamra fluorescence (emission 583 nm) was quantitated based on a linear standard curve of unconjugated Tamra in buffer. Intracellular distribution of Tamra-labeled oligonucleotides was examined using an Olympus Confocal FV300 fluorescent microscope (Olympus America Inc., Center Valley, Pa., United States of America) with 60X-oil immersion objective, as previously described. See Astriab-Fisher et al. (2004) Biochem. Pharmacol., 68, 403-407. Expression levels of αvβ3 were monitored by immunostaining with an anti-human-αvβ3 monoclonal (Chemicon, Temecula, Calif., United States of America) followed by an Alexa 488 rabbit antimouse secondary antibody, with analysis by flow cytometry using a DakoCytomation (Glostrop, Denmark) machine.
(In flow cytometry, cells or beads pass a laser one at a time.)

For data set [2], the system named is A375SM-Luc705-B cells. The data set is described as follows: Subcellular distribution and co-localization by confocal fluorescence microscopy (peptide conjugate). Type of data set: cell-based. Conditions: living cells; 200 nM, complex 100 nM.
Excerpt: as §1

In data set [3] the test system is A375SM-Luc705-B cells. In words: Short-term toxicity, viable cell count after 48 h (peptide conjugate). In kind it is cell-based. Conditions: concentrations up to 1000 nM, 48 h. The protocol: Toxicity Studies: Cells were treated with various concentrations of oligonucleotides or conjugates under the same conditions as used for the luciferase induction experiments. After 48 h in medium plus 1% FBS, cells were trypsinized and viable cells were counted in an electronic particle counter.

For data set [4], the target named is Micrococcal nuclease (Staphylococcus aureus, UniProt P00644). The data set is described as follows: Nuclease stability by polyacrylamide gel. Conditions: 0-12 h, 37° C. In kind it is in vitro ADME. The protocol:
The reactions were then stopped by the addition of EDTA (50 mM), and the fluorescent samples were analyzed on 10% polyacrylamide gels and examined under long-wavelength ultraviolet illumination to detect possible nucleolytic cleavage of the Tamra-labeled oligonucleotides.

In data set [5] the test system is A375SM-Luc705-B cells. The data set is described as follows: Confocal microscopy of live cells, albumin conjugates. In kind it is cell-based. The note with it: 100 nM, 24 h. The method, then:
Cellular Uptake and Confocal Microscopy: Cells were seeded onto either 12 well plates at 1×10^5 cells per well for cellular uptake measurements or in 12 well glass-bottom plates at 2×10^4 cells per well for live cell analysis by confocal microscopy. After treatment of cells with Tamra labeled oligonucleotide derivatives for 24 h, the cells were either lysed for measurement of Tamra fluorescence using a Nanodrop microfluorimeter (Nanodrop Technologies, Wilmington, Deleware, United States of America) or washed with DMEM containing 10% FBS and then placed in DMEM without phenol red, supplemented with 1% FBS, for confocal microscopy analysis. Co-localization of Tamra-labeled oligonucleotides with Alexa 488 labeled Transferrin or Dextran (Molecular Probes, Beaverton, Oreg., United States of America) in live cell was also examined by confocal microscopy. An Olympus confocal microscope with a 60× objective lens was used, and the data were processed using Fluoview software (Olympus, Center Valley, Pa., United States of America) as described in Example 1.

Take “5′-GTTATTCTTTAGAATGGTGC-Tamra-3′ [623-Tamra]”: the “level of surface αvβ3 expression” value in data set [1] is listed as “no effect”. Besides, the “cellular uptake seen by confocal microscopy” value in data set [2] is recorded as “relatively little uptake was observed; also recorded: Very little fluorescence related to cellular uptake of Tamra was observed”. The “short-term toxicity (viable cells)” value in data set [3] is listed as “little effect”. For the same substance, the “stability to micrococcal nuclease” value in data set [4] is listed as “gradual degradation”. Moreover, in data set [5], the “intracellular Tamra fluorescence” value is on record as “less intracellular fluorescene” and the “nuclear accumulation of Tamra fluorescence” value is recorded as “No Tamra fluorophore appeared to have accumulated in nuclei”. In addition, the “nuclear accumulation of Tamra fluorescence” value in data set [5] (listed as 623 Tamra) is listed as “no evidence of nuclear accumulation”.
